Experimental data taken from publication PMC5546590 (Biologics : Targets & Therapy, 2017).

Assays:
electric eel AChE = electric eel AChE (Electrophorus electricus, UniProt O42275); experiment: biochemical
[1] = target: horse butyxylcholinesterase (Equus caballus, UniProt P81908); experiment: biochemical
[2] = Solubility in water of isolated compounds

Sequence of electric eel AChE (O42275 24-633): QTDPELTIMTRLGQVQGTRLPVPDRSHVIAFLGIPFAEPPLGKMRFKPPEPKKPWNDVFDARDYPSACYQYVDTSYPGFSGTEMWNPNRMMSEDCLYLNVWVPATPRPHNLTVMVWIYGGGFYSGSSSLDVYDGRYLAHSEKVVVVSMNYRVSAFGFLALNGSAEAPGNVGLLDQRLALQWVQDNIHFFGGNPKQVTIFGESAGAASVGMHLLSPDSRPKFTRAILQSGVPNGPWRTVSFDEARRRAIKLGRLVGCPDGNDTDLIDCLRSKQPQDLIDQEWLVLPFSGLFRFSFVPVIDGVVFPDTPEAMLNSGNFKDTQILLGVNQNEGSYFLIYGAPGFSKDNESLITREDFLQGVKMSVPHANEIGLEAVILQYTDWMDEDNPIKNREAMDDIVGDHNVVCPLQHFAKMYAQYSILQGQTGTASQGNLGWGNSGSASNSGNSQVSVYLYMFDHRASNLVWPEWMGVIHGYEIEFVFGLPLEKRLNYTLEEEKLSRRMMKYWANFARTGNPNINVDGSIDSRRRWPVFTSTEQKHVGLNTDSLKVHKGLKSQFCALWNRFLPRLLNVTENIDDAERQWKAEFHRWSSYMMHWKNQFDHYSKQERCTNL
Sequence of horse butyxylcholinesterase (P81908 whole entry): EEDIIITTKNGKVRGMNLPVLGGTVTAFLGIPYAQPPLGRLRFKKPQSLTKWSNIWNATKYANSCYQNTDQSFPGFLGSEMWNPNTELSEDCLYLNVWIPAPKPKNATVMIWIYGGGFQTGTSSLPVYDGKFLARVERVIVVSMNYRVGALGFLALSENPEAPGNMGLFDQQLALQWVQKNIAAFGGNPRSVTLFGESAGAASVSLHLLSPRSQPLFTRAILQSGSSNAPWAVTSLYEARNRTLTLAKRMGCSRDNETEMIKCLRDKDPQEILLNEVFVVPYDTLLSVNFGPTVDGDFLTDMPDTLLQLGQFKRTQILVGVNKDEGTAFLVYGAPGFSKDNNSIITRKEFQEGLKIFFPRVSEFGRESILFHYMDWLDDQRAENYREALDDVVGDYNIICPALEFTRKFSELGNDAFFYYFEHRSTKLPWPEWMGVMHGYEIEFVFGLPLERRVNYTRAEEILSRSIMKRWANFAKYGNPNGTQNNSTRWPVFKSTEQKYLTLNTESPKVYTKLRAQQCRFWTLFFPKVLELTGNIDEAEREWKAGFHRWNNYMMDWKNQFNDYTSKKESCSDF

Row | SMILES | IC50 (electric eel AChE) [µM] | IC50 [1] [µM] | Solubility in water [2]
1 | C=C(C)[C@@H]1CC[C@]2(CO)CC[C@]3(C)[C@H](CC[C@@H]4[C@@]5(C)CC[C@H](O)C(C)(C)[C@@H]5CC[C@]43C)[C@@H]12 [Compound 1, betulin] | 1.99 | 10.5 | –
2 | CC(C)[C@H](C)CC[C@@H](C)[C@H]1CC[C@H]2[C@@H]3CC=C4C[C@@H](O)CC[C@]4(C)[C@H]3CC[C@]12C [Compound 2, campesterol] | 4.72 | 10.2 | Soluble
